According to publication PMC6562952, “Experimental and Computational Study to Reveal the Potential of Non-Polar Constituents from Hizikia fusiformis as Dual Protein Tyrosine Phosphatase 1B and α-Glucosidase Inhibitors” (Marine Drugs, 2019):
Where two headings read alike, the source gives them in different places.

Experiments:
[1] = molecular target: Yeast α-glucosidase; test: In vitro α-glucosidase inhibitory activity assay; format: biochemical; conditions: for IC50: mean ± SD of triplicate experiments; for α-glucosidase inhibitory activity (in words): under the tested concentration
Protocol: Enzyme inhibition studies were carried out spectrophotometrically in a 96-well micro-plate reader using a procedure reported by Li et al..

[2] = molecular target: T1, truncated form of human recombinant PTP1B (amino acid 1-322) (Homo sapiens, UniProt P18031); test: In vitro PTP1B inhibitory activity assay (pNPP substrate); conditions: for IC50: mean ± SD of triplicate experiments, pNPP substrate
T1 sequence (P18031 1-322): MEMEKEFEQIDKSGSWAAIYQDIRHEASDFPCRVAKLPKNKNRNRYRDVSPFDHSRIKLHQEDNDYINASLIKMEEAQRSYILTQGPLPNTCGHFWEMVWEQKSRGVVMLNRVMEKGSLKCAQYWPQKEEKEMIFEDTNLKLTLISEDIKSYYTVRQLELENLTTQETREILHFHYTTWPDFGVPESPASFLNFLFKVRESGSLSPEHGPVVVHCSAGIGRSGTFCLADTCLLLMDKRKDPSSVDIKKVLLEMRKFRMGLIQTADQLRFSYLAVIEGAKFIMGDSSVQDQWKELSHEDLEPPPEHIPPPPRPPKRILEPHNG
Protocol: A truncated form of human recombinant PTP1B (amino acid 1-322) was purchased from Enzo Life Sciences (Farmingdale, NY, USA) and dithiothreitol (DTT) was purchased from Bio-Rad Laboratories (Hercules, CA, USA). All other chemicals and solvents were purchased from E. Merck, Fluka, and Sigma-Aldrich, unless otherwise stated.
The inhibitory activity of isolated compounds against truncated form of human recombinant PTP1B was evaluated using pNPP as a substrate [48]. The amount of p-nitrophenyl produced after enzymatic dephosphorylation of pNPP was estimated by measuring the absorbance at 405 nm using a micro-plate spectrophotometer (Molecular Devices, Sunnyvale, CA, USA).

[3] = molecular target: T2, PTP1B (Homo sapiens, UniProt P18031); test: Enzyme kinetic analysis towards PTP1B (Lineweaver-Burk plot and secondary plots); format: biochemical
T2 sequence (P18031 1-322): T1 sequence (P18031 1-322)
Protocol: The inhibition constant (Ki) and inhibition mode for the inhibition of PTP1B was calculated by the Lineweaver-Burk plot and its secondary plot of the slope and the y-intercept of compounds [49, 50]. […] Graphs were generated using SigmaPlot 12.0 (Systat Software Inc., San Jose, CA, USA).

[4] = system: PTP1B; conditions: in vitro; cited from earlier work
[5] = system: insulin-resistant HepG2 cells; conditions: cited from earlier work
[6] = system: streptozotocin-induced Sprague-Dawley rats; conditions: fucosterol from Pelvetia siliquosa; cited from earlier work

SMILES | IC50 [1] [µM] | IC50 ([2]; IC50 PTP1B) [µM] | other results
C=CC(O)(CCC(C)C1CCC2C3CC=C4CC(O)CCC4(C)C3CCC12C)C(C)C (stereo not drawn) [Compound 4, 24R and 24S-saringosterol] | > 150 | > 150 | PTP1B inhibitory activity (in words) ([2]; under the tested concentration): no activity
COc1cc([C@H]2Oc3c(O)cc(CCCO)cc3[C@@H]2CO)ccc1O [Compound 14, cedrusin] | 134 ± 3.86 | 174 ± 5.44 | –
CC(=O)C=C=C1C(C)(C)CC(OC(C)=O)CC1(C)O [Compound 20, (3R)-4-[(2R,4S)-4-acetoxy-2-hydroxy-2,6,6-trimethylcyclohexylidene]but-3-en-2-one] | > 250 | 323.2 ± 0.84 | –
CC1(C)[C@@H](O)CC[C@]2(C)[C@H]3C(=O)C=C4[C@H]5C[C@@](C)(C(=O)O)CC[C@]5(C)CC[C@@]4(C)[C@]3(C)CC[C@@H]12 [Compound 22, 18α-glycyrrhetinic acid] | 113.3 ± 0.7 | – | Enzyme Kinetics Inhibition Type (PTP1B) [3]: Competitive
CC1(C)[C@@H](O[C@H]2O[C@H](C(=O)O)[C@@H](O)[C@H](O)[C@H]2O[C@@H]2O[C@H](C(=O)O)[C@@H](O)[C@H](O)[C@H]2O)CC[C@]2(C)[C@H]3C(=O)C=C4[C@@H]5C[C@@](C)(C(=O)O)CC[C@]5(C)CC[C@@]4(C)[C@]3(C)CC[C@@H]12 [Compound 18, 18β-glycyrrhetinic acid-3-O-β-D-glucuronopyranosyl-1(→2)-β-D-glucuronide] | > 150 | 110.3 ± 0.39 | α-glucosidase inhibitory activity (in words) [1]: no activity
COc1cc(C(O)C(CO)Oc2ccc(CCCO)cc2O)ccc1O (stereo not drawn) [Compound 15, 1-(4-hydroxy-3-methoxyphenyl)-2-[2-hydroxy-4-(3-hydroxypropyl)phenoxy]-1,3-propanediol] | > 250 | > 400 | –
CC1(C)C2CC[C@]3(C)[C@H](C(=O)C=C4[C@@H]5C[C@@](C)(C(=O)O)CC[C@]5(C)CC[C@]43C)[C@@]2(C)CC[C@@H]1O (stereo partly drawn) [Compound 23, 18β-glycyrrhetinic acid] | 129 ± 3.88 | – | Enzyme Kinetics Inhibition Type (PTP1B) [3]: Competitive
CC(C)C1(CC[C@@H](C)[C@H]2CCC3C4CC=C5C[C@@H](O)CC[C@]5(C)C4CC[C@@]32C)OC1C (mixture of isomers) [Compound 6, 24R,28R and 24S,28R-epoxy-24-ethylcholesterol] | > 150 | 16.7 ± 0.36 | Enzyme Kinetics Inhibition Type (PTP1B) [3]: Non-competitive; times stronger PTP1B inhibitory activity than 5 ([2]; ratio of IC50 versus fucosterol (5)): 3 times
NCCc1ccc(O)cc1 [Compound 21, tyramine] | 273 ± 5.65 | 188 ± 3.21 | –
OCC1OC(OCc2ccccc2)C(O)C(O)C1O (stereo not drawn) [Compound 16, benzyl alcohol alloside] | > 250 | > 400 | –
COC(=O)C1OC(OC2CCC3(C)C(CCC4(C)C3C(=O)C=C3C5CC(C)(C(=O)O)CCC5(C)CCC34C)C2(C)C)C(OC2OC(C(=O)O)C(O)C(O)C2O)C(O)C1O [Compound 19, 18β-glycyrrhetinic acid-3-O-β-D-glucuronopyranosyl-1(→2)-β-D-glucuronide-6’-methyl ester] | > 150 | – | α-glucosidase inhibitory activity (in words) [1]: no activity; times stronger PTP1B inhibition than compound 18 ([2]; ratio of IC50 versus glycyrrhizin (18)): 2.2 times
CCCCCC\C=C/C=C\C=C/C=C\CCCCCC(=O)O [Compound 9, (7Z,9Z,11Z,13Z)-icosa-7,9,11,13-tetraenoic acid] | 34.9 ± 2.39 | 10.7 ± 0.17 | –
CC1(C)CC2CC(C)(O2)/C1=C/C(=O)O (stereo not drawn) [Compound 17, madhusic acid A] | > 300 | – | IC50 ([2]; read-out: IC50 PTP1B): > 400 µM
C/C=C(\CC[C@@H](C)[C@H]1CC[C@H]2[C@@H]3CC=C4C[C@@H](O)CC[C@]4(C)[C@H]3CC[C@]12C)C(C)C [Compound 5, fucosterol] | > 150 | 50.6 ± 1.86 | Enzyme Kinetics Inhibition Type (PTP1B) [3]: non-competitive; PTP1B inhibition type (literature) [4]: non-competitive; effect on insulin resistance [5]: improved insulin resistance; anti-diabetic activity [6]: anti-diabetic activity

Further lines, with some results ahead:

IC50 [1] [µM] | IC50 ([2]; IC50 PTP1B) [µM] | SMILES | other results
43.9 ± 0.77 | 11.5 ± 0.52 | CC/C=C\C/C=C\C/C=C\CCCCCCC(=O)O [Compound 12, (8Z,11Z,14Z)-heptadeca-8,11,14-trienoic acid] | –
48.1 ± 3.37 | 6.59 ± 0.09 | CCC/C=C\CCCCCCCCCCC(=O)O [Compound 1, (Z)-hexadec-12-enoic acid] | –
113 ± 2.47 | 13.7 ± 0.49 | CCCCCCCC/C=C\CCCCCCCC(=O)O [Compound 3, (Z)-octaec-9-enoic acid] | –
> 200 | 4.86 ± 1.36 | CC/C=C\C/C=C\C/C=C\CCCCCCC(=O)O [Compound 7, (8Z,11Z,14Z)-heptadeca-8,11,14-trienoic acid] | –
93.6 ± 3.68 | 49.4 ± 1.39 | CCCCCCCCCCCCCCCC(=O)O [Compound 2, palmitic acid] | –
> 150 | 4.92 ± 0.01 | C=C(COC(=O)CCCCCC(=O)OCC(O)COC(=O)CCC/C=C\C/C=C\C/C=C\CCCCCCCC)C(=O)O (stereo not drawn) [Compound 13, 2-(7′-(2″-hydroxy-3″-((5Z,8Z,11Z)-icosatrienoyloxy)propoxy)-7′-oxoheptanoyl)oxymethylpropenoic acid] | Enzyme Kinetics Inhibition Type (PTP1B) [3]: Non-competitive
> 200 | 16.43 ± 0.07 | CC/C=C\C/C=C\C/C=C\C/C=C\CCCCC(=O)O [Compound 10, (6Z,9Z,12Z,15Z)-octadeca-6,9,12,15-tetraenoic acid] | –
112 ± 1.44 | 13.58 ± 0.1 | CCCC/C=C\C/C=C\C/C=C\CCCCCC(=O)O [Compound 8, (7Z,10Z,13Z)-octadeca-7,10,13-trienoic acid] | –
